Where a SMILES comes first, the peptide text is derived from it.
How the values were obtained:
[1] = biological target: Trypsin, from human pancreas (Homo sapiens, UniProt P07477); experiment: Enzymatic assay, trypsin
[2] = biological target: T1, Elastase from human neutrophils (Homo sapiens, UniProt P08246); experiment: Enzymatic assay, elastase; conditions: for Elastase at 100 μM %: at 100 μM (stated in cell instead of IC50); for IC50: Elastase IC50
T1 sequence (P08246 30-267): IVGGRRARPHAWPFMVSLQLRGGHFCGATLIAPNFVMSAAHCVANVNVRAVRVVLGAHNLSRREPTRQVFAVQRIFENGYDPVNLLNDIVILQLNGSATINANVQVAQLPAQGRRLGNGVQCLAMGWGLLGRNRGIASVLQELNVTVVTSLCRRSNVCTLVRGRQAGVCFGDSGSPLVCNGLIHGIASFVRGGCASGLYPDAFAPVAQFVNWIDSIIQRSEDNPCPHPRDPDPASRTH

[3] = biological target: T2, CathepsinG, from human neutrophils (Homo sapiens, UniProt P08311); experiment: Enzymatic assay, cathepsin G; conditions: Cathepsin G IC50
T2 sequence (P08311 21-244): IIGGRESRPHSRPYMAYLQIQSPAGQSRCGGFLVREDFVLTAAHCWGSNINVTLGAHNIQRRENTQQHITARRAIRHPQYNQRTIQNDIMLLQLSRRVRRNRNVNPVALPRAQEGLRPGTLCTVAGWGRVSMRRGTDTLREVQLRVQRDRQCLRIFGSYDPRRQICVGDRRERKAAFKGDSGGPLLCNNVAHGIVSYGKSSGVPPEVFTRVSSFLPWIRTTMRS

Chymase, from human skin = biological target: T3, Chymase, from human skin (Homo sapiens, UniProt P23946); experiment: Enzymatic assay, chymase
T3 sequence (P23946 22-247): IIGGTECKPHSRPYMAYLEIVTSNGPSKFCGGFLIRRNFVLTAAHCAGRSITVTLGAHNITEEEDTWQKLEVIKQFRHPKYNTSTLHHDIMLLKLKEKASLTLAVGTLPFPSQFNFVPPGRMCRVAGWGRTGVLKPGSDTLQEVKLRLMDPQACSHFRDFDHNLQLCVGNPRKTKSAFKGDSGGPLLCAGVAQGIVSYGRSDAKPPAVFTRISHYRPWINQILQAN

[4] = biological target: Chymotrypsin, from human pancreas (Homo sapiens, UniProt P17538); experiment: Enzymatic assay, chymotrypsin
[5] = system: Tryptase, from human lung; experiment: Enzymatic assay, tryptase; conditions: at 100 μM

Sequence of Chymotrypsin, from human pancreas (P17538 19-263): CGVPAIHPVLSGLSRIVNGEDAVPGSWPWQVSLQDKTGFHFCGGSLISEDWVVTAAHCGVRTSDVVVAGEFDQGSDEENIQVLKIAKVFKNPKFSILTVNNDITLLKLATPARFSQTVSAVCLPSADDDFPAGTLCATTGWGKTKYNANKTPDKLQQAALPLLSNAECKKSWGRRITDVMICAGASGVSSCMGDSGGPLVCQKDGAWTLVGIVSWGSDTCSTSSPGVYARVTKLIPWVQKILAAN

Compound	Trypsin at 100 μM % [1] [%]	Elastase at 100 μM % [2] [at %]	IC50 [3] [µM]	Chymase at 100 μM % (Chymase, from human skin) [%]	Chymotrypsin at 100 μM % [4] [%]	Tryptase At 100 μM % [5] [%]	further results
CCCC[C@@H]1NC(=O)[C@H](CCCNC(=N)N)NC(=O)[C@@H]2CCCN2C(=O)[C@H]2CCCN2C(=O)[C@H](Cc2ccccc2)NC(=O)[C@H](CCCC)NC(=O)[C@H]([C@@H](C)CC)NC(=O)[C@@H]2CCCN2C(=O)[C@@H]2CCCN2C(=O)[C@H](CC(=O)O)NC(=O)[C@H](CO)NC(=O)[C@H](CCCCN)NC(=O)[C@H]([C@@H](C)O)NC1=O [Ex. 8] (HELM PEPTIDE1{R.[Nle].T.K.S.D.P.P.I.[Nle].F.[dP].P}$PEPTIDE1,PEPTIDE1,1:R1-13:R2$$$V2.0)	74.2	0.8	0.126	71.7	5.6	–	–
CCCC[C@@H]1NC(=O)[C@@H]2CCCN2C(=O)[C@H]2CCCN2C(=O)[C@H](CO)NC(=O)[C@@H]2CSSC[C@H](NC1=O)C(=O)N[C@@H]([C@@H](C)O)C(=O)N[C@@H](CCCCN)C(=O)N[C@@H](CO)C(=O)N[C@@H](CC(=O)O)C(=O)N1CCC[C@H]1C(=O)N1CCC[C@H]1C(=O)N[C@@H]([C@@H](C)CC)C(=O)N2 [Ex. 10] (HELM PEPTIDE1{[Nle].C.T.K.S.D.P.P.I.C.S.[dP].P}$PEPTIDE1,PEPTIDE1,2:R3-10:R3|PEPTIDE1,PEPTIDE1,1:R1-13:R2$$$V2.0)	89.9	0.3	0.075	9.4	–	–	–
CC[C@H](C)[C@@H]1NC(=O)[C@@H]2CCCN2C(=O)[C@@H]2CCCN2C(=O)[C@H](CC(=O)O)NC(=O)[C@H](CO)NC(=O)[C@H](CCCCN)NC(=O)[C@H]([C@@H](C)O)NC(=O)[C@@H]2CSSC[C@H](NC1=O)C(=O)N[C@@H](CO)C(=O)N1CCC[C@@H]1C(=O)N1CCC[C@H]1C(=O)N[C@@H](C1CCCCC1)C(=O)N2 [Ex. 11] (HELM PEPTIDE1{[O=C([C@@H](N[*:1])C1CCCCC1)[*:2]].C.T.K.S.D.P.P.I.C.S.[dP].P}$PEPTIDE1,PEPTIDE1,2:R3-10:R3|PEPTIDE1,PEPTIDE1,1:R1-13:R2$$$V2.0)	6.5	19	0.095	12.1	73.6	–	–
CC[C@H](C)[C@@H]1NC(=O)[C@@H]2CCCN2C(=O)[C@@H]2CCCN2C(=O)[C@H](CC(=O)O)NC(=O)[C@H](CO)NC(=O)[C@H](CCCCN)NC(=O)[C@H]([C@@H](C)O)NC(=O)[C@@H]2CSSC[C@H](NC1=O)C(=O)N[C@@H](CCCNC(=N)N)C(=O)N1CCC[C@@H]1C(=O)N1CCC[C@H]1C(=O)N[C@@H](Cc1ccccc1Cl)C(=O)N2 [Ex. 13] (HELM PEPTIDE1{[O=C([C@H](Cc1ccccc1Cl)N[*:1])[*:2]].C.T.K.S.D.P.P.I.C.R.[dP].P}$PEPTIDE1,PEPTIDE1,2:R3-10:R3|PEPTIDE1,PEPTIDE1,1:R1-13:R2$$$V2.0)	95.0	8.2	0.1	19.9	–	–	–
CC[C@H](C)[C@@H]1NC(=O)[C@@H]2CCCN2C(=O)[C@@H]2CCCN2C(=O)[C@H](CC(=O)O)NC(=O)[C@H](CN)NC(=O)[C@H](CCCCN)NC(=O)[C@H]([C@@H](C)O)NC(=O)[C@@H]2CSSC[C@H](NC1=O)C(=O)N[C@@H](CO)C(=O)N1CCC[C@@H]1C(=O)N1CCC[C@H]1C(=O)N[C@@H](Cc1ccccc1)C(=O)N2 [Ex. 25] (HELM PEPTIDE1{F.C.T.K.[NC[C@H](N[*:1])C(=O)[*:2]].D.P.P.I.C.S.[dP].P}$PEPTIDE1,PEPTIDE1,2:R3-10:R3|PEPTIDE1,PEPTIDE1,1:R1-13:R2$$$V2.0)	89.3	3.2	0.102	10.0	–	–	–
CCCC[C@@H]1NC(=O)[C@@H]2CCCN2C(=O)[C@H]2CCCN2C(=O)[C@H](Cc2ccc(O)cc2)NC(=O)[C@@H]2CSSC[C@H](NC1=O)C(=O)N[C@@H]([C@@H](C)O)C(=O)N[C@@H](C)C(=O)N[C@@H](CO)C(=O)N[C@@H](CC1CCCCC1)C(=O)N1CCC[C@H]1C(=O)N1CCC[C@H]1C(=O)N[C@@H](CCC(N)=O)C(=O)N2 [Ex. 82] (HELM PEPTIDE1{[Nle].C.T.A.S.[Cha].P.P.Q.C.Y.[dP].P}$PEPTIDE1,PEPTIDE1,2:R3-10:R3|PEPTIDE1,PEPTIDE1,1:R1-13:R2$$$V2.0)	–	–	–	–	–	–	IC50 [2]: 0.018 µM; IC50 [4]: 0.0729 µM; Tryptase at 100 μM % [5]: 44.5%
CCCC[C@@H]1NC(=O)[C@@H]2CCCN2C(=O)[C@H]2CCCN2C(=O)[C@H](Cc2ccccc2)NC(=O)[C@@H]2CSSC[C@H](NC1=O)C(=O)N[C@@H]([C@@H](C)O)C(=O)N[C@@H](C)C(=O)N[C@@H](CO)C(=O)N[C@@H]([C@@H](C)CC)C(=O)N1CCC[C@H]1C(=O)N1CCC[C@H]1C(=O)N[C@@H](CCC(N)=O)C(=O)N2 [Ex. 137] (HELM PEPTIDE1{[Nle].C.T.A.S.I.P.P.Q.C.F.[dP].P}$PEPTIDE1,PEPTIDE1,2:R3-10:R3|PEPTIDE1,PEPTIDE1,1:R1-13:R2$$$V2.0)	–	–	–	–	68.7	5	–
CCCC[C@@H]1NC(=O)[C@@H]2CCCN2C(=O)[C@H]2CCCN2C(=O)[C@H](Cc2ccc(O)cc2)NC(=O)[C@@H]2CSSC[C@H](NC1=O)C(=O)N[C@@H]([C@@H](C)O)C(=O)N[C@@H](C)C(=O)N[C@@H](CO)C(=O)N[C@@H](C1CCCCC1)C(=O)N1CCC[C@H]1C(=O)N1CCC[C@H]1C(=O)N[C@@H](CCC(N)=O)C(=O)N2 [Ex. 140] (HELM PEPTIDE1{[Nle].C.T.A.S.[O=C([C@@H](N[*:1])C1CCCCC1)[*:2]].P.P.Q.C.Y.[dP].P}$PEPTIDE1,PEPTIDE1,2:R3-10:R3|PEPTIDE1,PEPTIDE1,1:R1-13:R2$$$V2.0)	–	–	–	–	79.6	4.2	–
CCCC[C@@H]1NC(=O)[C@H](CC(=O)O)NC(=O)[C@H]2CCCN2C(=O)[C@H](Cc2ccc(O)cc2)NC(=O)[C@@H]2CSSC[C@H](NC1=O)C(=O)N[C@@H]([C@@H](C)O)C(=O)N[C@@H](C)C(=O)N[C@@H](CO)C(=O)N[C@@H]([C@@H](C)CC)C(=O)N1CCC[C@H]1C(=O)N1CCC[C@H]1C(=O)N[C@@H](CCC(N)=O)C(=O)N2 [Ex. 168] (HELM PEPTIDE1{[Nle].C.T.A.S.I.P.P.Q.C.Y.[dP].D}$PEPTIDE1,PEPTIDE1,2:R3-10:R3|PEPTIDE1,PEPTIDE1,1:R1-13:R2$$$V2.0)	–	–	–	–	72.9	4.6	–
CCCC[C@@H]1NC(=O)[C@@H]2CCCN2C(=O)[C@H]2CCCN2C(=O)[C@H](Cc2ccc(O)cc2)NC(=O)[C@@H]2CSSC[C@H](NC1=O)C(=O)N[C@@H]([C@@H](C)O)C(=O)N[C@@H](C)C(=O)N[C@@H](CO)C(=O)N[C@@H]([C@@H](C)CC)C(=O)N1CCC[C@H]1C(=O)N1CCC[C@H]1C(=O)N[C@@H](CCC(N)=O)C(=O)N2 [Ex. 179] (HELM PEPTIDE1{[Nle].C.T.A.S.I.P.P.Q.C.Y.[dP].P}$PEPTIDE1,PEPTIDE1,2:R3-10:R3|PEPTIDE1,PEPTIDE1,1:R1-13:R2$$$V2.0)	–	–	–	–	76.0	0	IC50 [1]: > 100 µM; IC50 [2]: 0.05 µM
CCCC[C@@H]1NC(=O)[C@H](Cc2ccccc2)NC(=O)[C@H]2CCCN2C(=O)[C@H](Cc2ccc(O)cc2)NC(=O)[C@@H]2CSSC[C@H](NC1=O)C(=O)N[C@@H]([C@@H](C)O)C(=O)N[C@@H](C)C(=O)N[C@@H](CO)C(=O)N[C@@H]([C@@H](C)CC)C(=O)N1CCC[C@H]1C(=O)N1CCC[C@H]1C(=O)N[C@@H](CCC(N)=O)C(=O)N2 [compound 167] (HELM PEPTIDE1{[Nle].C.T.A.S.I.P.P.Q.C.Y.[dP].F}$PEPTIDE1,PEPTIDE1,2:R3-10:R3|PEPTIDE1,PEPTIDE1,1:R1-13:R2$$$V2.0)	–	–	–	–	60.2	0.2	–

— patent publication US8658604B2, “Template-fixed beta-hairpin peptidomimetics with protease inhibitory activity” (Polyphor Ltd, priority 2005, dated 2014)
